The source of these data is patent US10183940B2, “Aryl and heteroaryl-fused tetrahydro-1,4-oxazepine amides as somatostatin receptor subtype 4 (SSTR4) agonists” (Boehringer Ingelheim International GmbH, priority 2014, dated 2019).

In series [1] the target is human Somatostatin 4 receptor (SSTR4) (Homo sapiens (Human), UniProt P31391). Kind of series: cAMP assay with human Somatostatin 4 receptor. It is filed as cell-based. Conditions: hSSTR4 expressing H4 cells, inhibition of Forskolin-stimulated cAMP; read-out: SSTR4 agonism EC50. As to the method: Method description for cAMP assay with human Somatostatin 4 receptor.
Chain of human Somatostatin 4 receptor (SSTR4) (P31391 whole entry): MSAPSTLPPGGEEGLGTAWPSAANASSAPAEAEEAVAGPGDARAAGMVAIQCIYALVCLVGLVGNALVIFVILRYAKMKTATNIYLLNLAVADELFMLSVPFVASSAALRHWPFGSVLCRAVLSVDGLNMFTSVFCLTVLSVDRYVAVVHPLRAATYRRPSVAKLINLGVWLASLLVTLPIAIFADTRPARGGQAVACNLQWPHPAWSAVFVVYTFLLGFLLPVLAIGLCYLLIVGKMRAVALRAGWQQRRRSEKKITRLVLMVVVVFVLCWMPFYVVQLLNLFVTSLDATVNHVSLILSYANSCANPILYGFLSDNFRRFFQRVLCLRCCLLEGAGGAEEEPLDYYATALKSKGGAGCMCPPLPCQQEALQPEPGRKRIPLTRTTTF
The activation of the SSTR4 receptor (Gi coupled) causes an inhibition of intracellular cAMP after stimulation with Forskolin, which can be quantifiable by use of a suitable assay Kit and an adequate plate reader. This technique is used to characterize pharmacological effects of the SSTR4 receptor agonists by use of hSSTR4 expressing H4 cells.
Compounds are dissolved and diluted in DMSO. The final test solution contains […]. The cAMP standard (Lance cAMP 384 Kit; PerkinElmer, Cat #AD0264) is prepared in assay buffer (HBSS with 0.1% BSA, 5 mM HEPES, […], pH 7.4) containing 1% DMSO and the cAMP standard curve is included at least on one plate. Cells are centrifuged and suspended in assay buffer (incl. 1:100 diluted Alexa antibody).
For the assay 5 μl of a cell suspension (approximately 5000 cells/well)—incl. Alexa antibody (diluted 1:100) are added into a 384 well MTP microtitre plate excepting one row or column (depending on the plate layout), which is reserved for the standard curve. Then 2 μl of compound sample is added as concentration response curve (e.g. 1e-5 M to 6e-10 M), usually in triplicates. Each assay contains incubations with vehicle controls instead of compound as controls for non-inhibited cAMP generation (100% CTL; ‘high values’) and incubations with 1 μM Somatosatin as controls for full inhibition and background (0% CTL; ‘low values’). After approximately 10-15 min incubation time 3 μl Forskolin (dissolved in DMSO, final conc. 15 μM) is added. Then the plates are shaken briefly and incubated for 60 min at room temperature. After 60 min 10 μl of the detection mix is added into all wells followed by an additional incubation period of 1 h. The plates are read in a suitable plate reader.
The analysis of the data is based on the “ratio” of the time-resolved fluorescence measurements of donor and acceptor fluorophore (Ex: 320 nm; Em1: 665 nm; Em2: 615 nm; ratio 665/615). From this ratio, cAMP concentrations are calculated from standard curve and the EC50 is estimated by least square curve fit program.

Series [2] in a line: Metabolic stability in human liver microsomes. The class given is in vitro ADME. Conditions: pH 7.6; pooled human liver microsomes, 37° C., 1 μM test compound, NADPH; read-out: Half-life t1/2. As to the method:
The metabolic stability of the compounds according to the invention may be investigated as follows:
The metabolic degradation of the test compound is assayed at 37° C. with pooled human liver microsomes. The final incubation volume of 100 μl per time point contains TRIS buffer pH 7.6 at room temperature (0.1 M), magnesium chloride (5 mM), microsomal protein (1 mg/mL) and the test compound at a final concentration of 1 μM. Following a short preincubation period at 37° C., the reactions are initiated by addition of beta-nicotinamide adenine dinucleotide phosphate, reduced form (NADPH, 1 mM), and terminated by transferring an aliquot into solvent after different time points. After centrifugation (10000 g, 5 min), an aliquot of the supernatant is assayed by LC-MS/MS for the amount of parent compound. The half-life is determined by the slope of the semi-logarithmic plot of the concentration-time profile.

As for `CC(C)(NC(=O)c1cccc2c1OCCNC2)c1cccc2ccccc12` [Example 7], the EC50 in series [1] turned out to be 1.4 nM. The half-life at 1 μM in series [2] was 32 min.

As to `CC(C)(NC(=O)c1cccc2c1OCCNC2)c1ccc(Cl)c(Cl)c1.Cl` [Example 8], in series [1], the EC50 came to 22.3 nM. Moreover, in series [2], the half-life at 1 μM was found to be 4.4 min. `C[C@H](NC(=O)c1cccc2c1OCCNC2)c1cccc2ccccc12.Cl` [Example 9]: the EC50 in series [1] was 2.8 nM. Also, the half-life at 1 μM in series [2] was determined as 19 min. On the same counts, the results for `CC(C)(NC(=O)c1cccc2c1OCCNC2)c1ncc2ccccn12.Cl` [Example 13] are 14.3 nM and above 130 min. For the compound `CC(C)(NC(=O)c1cccc2c1OCCNC2)c1ccc(Cl)cc1.Cl` [Example 17], the EC50 in series [1] is 8.2 nM. In addition, the half-life at 1 μM in series [2] is 14 min. Regarding `Cn1nc(C(C)(C)NC(=O)c2cccc3c2OCCNC3)c2c(F)cccc21` [Example 22], the EC50 in series [1] was 8 nM. For the same compound, in series [2], the half-life at 1 μM worked out at 42 min. On the same counts, the results for `Cn1nc(C(C)(C)NC(=O)c2cccc3c2OCCNC3)c2ccc(F)cc21` [Example 23] are 0.9 nM and 67 min. On the same counts, the results for `Cc1cccc2c(C(C)(C)NC(=O)c3cccc4c3OCCNC4)cnn12` [Example 24] are 4.4 nM and 110 min. On to `Cc1ncc(C(C)(C)NC(=O)c2cccc3c2OCCNC3)c2ccccc12` [Example 27], for which the EC50 in series [1] turned out to be 0.6 nM. Further, the half-life at 1 μM in series [2] is above 130 min.

For `Cc1cc2ccccc2c(C(C)(C)NC(=O)c2cccc3c2OCCNC3)n1` [Example 28], the EC50 in series [1] turned out to be 4.2 nM. The half-life at 1 μM in series [2] was 30 min. The matching figures for `Cc1cc2ccccc2c(C(C)(C)NC(=O)c2nccc3c2OCCNC3)n1` [Example 29]: 19.9 nM and 27 min. On the same counts, the results for `Cc1cccc2c(C(C)(C)NC(=O)c3cccc4c3OCCNC4)noc12` [Example 32] are 2.8 nM and 54 min. For `CC(C)(NC(=O)c1cccc2c1OCCNC2)c1noc2c(Cl)cccc12` [Example 38], in series [1], the EC50 was 2.9 nM. In addition, in series [2], the half-life at 1 μM came to 35 min. `Cc1cccc2c(C(C)(C)NC(=O)c3cccc4c3OCCNC4)nn(C)c12` [Example 40]: the EC50 in series [1] was 2.2 nM. For the same compound, the half-life at 1 μM in series [2] turned out to be 31 min.

On to `Cc1cccc2c(C(C)(C)NC(=O)c3ccnc4c3OCCNC4)nn(C)c12` [Example 41], for which, in series [1], the EC50 is 18.3 nM. The half-life at 1 μM in series [2] was above 130 min. On the same counts, the results for `CC(C)(NC(=O)c1cccc2c1OCCNC2)c1n[nH]c2c(F)cccc12` [Example 43] are 2.2 nM and 87 min. `CC(C)(NC(=O)c1cccc2c1OCCNC2)c1n[nH]c2c(Cl)cccc12` [Example 44]: the EC50 in series [1] was found to be 1.3 nM. In addition, the half-life at 1 μM in series [2] was above 130 min.

In the case of `Cc1cccc2c(C(C)(C)NC(=O)c3cccc4c3OCCNC4)ncnc12` [Example 45], in series [1], the EC50 was 9.2 nM. In addition, in series [2], the half-life at 1 μM was determined as 110 min. Consider `CC(C)(NC(=O)c1cccc2c1OCCNC2)c1ncnc2ccccc12` [Example 46], for which the EC50 in series [1] came out at 9.2 nM. For the same compound, in series [2], the half-life at 1 μM is above 130 min. Consider `CC(C)(NC(=O)c1cccc2c1OCCNC2)c1ncc2c(Cl)cccn12` [Example 48], for which, in series [1], the EC50 was 1.7 nM. For the same compound, the half-life at 1 μM in series [2] turned out to be 85 min. For the compound `Cc1nc2ccccn2c1C(C)(C)NC(=O)c1cccc2c1OCCNC2` [Example 69], the EC50 in series [1] came to 17.6 nM. Still for that read-out and setting: under `Cc1cccn2c(C3(NC(=O)c4nccc5c4OCCNC5)CC3)ncc12` [Example 73] stands 39.3 nM; under `COc1cccn2c(C(C)(C)NC(=O)c3nccc4c3OCCNC4)ncc12` [Example 74], 106 nM; under `Cc1cccn2c(C(C)(C)NC(=O)c3nccc4c3OCCNC4)nc(C3CC3)c12` [Example 76], 145 nM. As to `Cc1cccn2c(C(C)(C)NC(=O)c3nccc4c3OCCNC4)ccc12` [Example 77], in series [1], the concentration giving a half-maximal response (EC50) amounted to 22.6 nM.
